Data reported in patent US7825129B2, “Thieno[2,3-c] isoquinolines for use as inhibitors of PARP” (priority 2000, dated 2010).

Columns and labels:
[1] = biological target: T1, poly(ADP-ribose) polymerase (PARP) (Bos taurus, UniProt P18493); test: Activity against purified PARP, [3H]NAD incorporation; format: biochemical; conditions: purified PARP from foetal calf thymus, 37° C., 30 mins; read-out: IC50 of PARP inhibitors tested on enzyme prepared from bovine thymus
T1 construct: purified PARP derived from foetal calf thymus; from tissue; host or cells: foetal calf thymus
T1 sequence (P18493 whole entry): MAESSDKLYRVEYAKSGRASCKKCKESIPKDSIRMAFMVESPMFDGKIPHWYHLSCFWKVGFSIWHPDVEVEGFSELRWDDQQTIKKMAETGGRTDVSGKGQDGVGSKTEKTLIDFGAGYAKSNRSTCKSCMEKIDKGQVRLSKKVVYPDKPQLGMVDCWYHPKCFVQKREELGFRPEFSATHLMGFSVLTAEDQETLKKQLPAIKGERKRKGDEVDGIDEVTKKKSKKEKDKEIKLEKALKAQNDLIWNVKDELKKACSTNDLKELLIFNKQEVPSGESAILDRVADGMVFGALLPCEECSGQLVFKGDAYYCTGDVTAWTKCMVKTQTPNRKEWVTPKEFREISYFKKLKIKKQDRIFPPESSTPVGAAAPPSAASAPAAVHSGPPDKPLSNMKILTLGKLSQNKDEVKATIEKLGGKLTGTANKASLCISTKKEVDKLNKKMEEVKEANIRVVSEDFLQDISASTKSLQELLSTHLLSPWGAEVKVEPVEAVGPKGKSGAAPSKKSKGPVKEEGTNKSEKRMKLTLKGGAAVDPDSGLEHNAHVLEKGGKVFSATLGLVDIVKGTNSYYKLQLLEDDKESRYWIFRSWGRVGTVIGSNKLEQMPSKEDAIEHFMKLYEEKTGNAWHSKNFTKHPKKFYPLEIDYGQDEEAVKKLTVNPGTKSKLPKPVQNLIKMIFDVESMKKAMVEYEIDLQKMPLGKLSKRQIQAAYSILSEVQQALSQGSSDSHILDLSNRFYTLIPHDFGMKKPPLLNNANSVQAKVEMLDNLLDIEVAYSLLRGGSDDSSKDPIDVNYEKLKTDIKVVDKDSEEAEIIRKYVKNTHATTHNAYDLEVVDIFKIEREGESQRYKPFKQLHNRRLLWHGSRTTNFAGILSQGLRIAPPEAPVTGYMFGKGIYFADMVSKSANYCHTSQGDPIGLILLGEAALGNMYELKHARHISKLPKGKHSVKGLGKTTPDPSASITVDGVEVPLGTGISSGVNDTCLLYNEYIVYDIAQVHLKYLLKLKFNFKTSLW
Experimental: The activity on PARP was evaluated using purified PARP derived from foetal calf thymus, as per Ito et al. (J. Biol. Chem. […]: 3647, 1979). […] The active fractions were used for the activity tests carried out as per Banasik et al. (J. Biol. Chem. 267: 1569, 1992). […] The reaction was terminated with 10% of trichloroacetic acid and the radioactivity associated with the protein was evaluated in a liquid scintillation spectrometer.

[2] = system: primary neuronal cultures; test: Post-ischaemic neuronal death in primary neuronal cultures exposed to oxygen and glucose deprivation; format: cell-based; conditions: read-out: IC50 for reducing post-ischaemic neuronal death
Experimental: (§1) 2) The biological activity was evaluated in primary neuronal cultures exposed to oxygen and glucose deprivation (see: Neuropharmacology 38: 1007-[…]) and in vivo in rats with MCA [sic]. The volume of the infarct was measured 72 hrs after the occlusion using a method described previously (Cozzi et al., J. Cerebrali Blood Flow Metabolism 19: 771-777; 1999).

[3] = system: rats with permanent occlusion of the medial cerebral artery; test: MCAO stroke model in rats, infarct volume; format: in vivo, rat; conditions: 3-10 mg/kg i.p., infarct volume measured 72 hrs after occlusion
Experimental: as §1
In this stroke model, the compound (3-10 mg/kg i.p.) reduced by 40% the volume of necrotic brain induced by the permanent occlusion of the medial cerebral artery.

Structure (SMILES)	IC50 [1] [nM]	melting point [°C]	IC50 [2] [nM]	reduction of the volume of necrotic brain [3] [%]
NC(=O)c1ccccc1 [Benzamide, reference compound]	90000	–	–	–
O=c1[nH]c2sccc2c2ccccc12 [Example 1, Thieno[2,3-c]isoquinolin-5(4H)-one]	–	–	~3000	40
O=c1[nH]c2sccc2c2c(O)cccc12 [Example 2, 9-Hydroxythieno[2,3-c]isoquinolin-5(4H)-one]	100	298 to 301	–	–

Continued, in another order:

IC50 [1] [nM]	melting point [°C]	Structure (SMILES)	IC50 [2] [nM]	reduction of the volume of necrotic brain [3] [%]
300	198 to 200	COc1cccc2c(=O)[nH]c3sccc3c12 [Example 3, 9-Methoxythieno[2,3-c]isoquinolin-5(4H)-one]	–	–
50	297 to 299	Nc1cccc2c(=O)[nH]c3sccc3c12 [Example 4, 9-Aminothieno[2,3-c]isoquinolin-5(4H)-one]	–	–
